Key:
Type in all cases: biochemical
CYP2C9 = CYP2C9 (Homo sapiens, UniProt P11712); assay: recombinant CYP inhibition, fluorescence
CYP2C19 = CYP2C19 (Homo sapiens, UniProt P33261); assay: recombinant CYP inhibition, fluorescence
human topoisomerase IIα = human topoisomerase IIα (Homo sapiens, UniProt P11388); assay: human topoisomerase IIα decatenation assay
CYP3A4 = CYP3A4 (Homo sapiens, UniProt P08684); assay: recombinant CYP inhibition, fluorescence
CYP1A2 = target: T1, CYP1A2 (Homo sapiens, UniProt P05177); assay: recombinant CYP inhibition, fluorescence
T1 sequence (P05177 2-516): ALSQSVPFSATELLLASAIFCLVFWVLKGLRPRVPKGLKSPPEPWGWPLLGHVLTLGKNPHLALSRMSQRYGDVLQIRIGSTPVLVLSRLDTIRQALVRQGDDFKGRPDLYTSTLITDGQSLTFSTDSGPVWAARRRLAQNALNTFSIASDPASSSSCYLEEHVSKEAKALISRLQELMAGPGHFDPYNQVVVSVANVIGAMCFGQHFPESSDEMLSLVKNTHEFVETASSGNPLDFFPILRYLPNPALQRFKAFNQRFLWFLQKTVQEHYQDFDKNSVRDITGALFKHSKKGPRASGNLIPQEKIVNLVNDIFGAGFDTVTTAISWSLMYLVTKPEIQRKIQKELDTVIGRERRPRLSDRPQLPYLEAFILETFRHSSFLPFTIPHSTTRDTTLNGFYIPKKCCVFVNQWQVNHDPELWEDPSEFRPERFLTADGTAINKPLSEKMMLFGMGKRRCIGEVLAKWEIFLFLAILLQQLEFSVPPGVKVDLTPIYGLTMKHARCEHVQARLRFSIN

CYP2D6 = CYP2D6 (Homo sapiens, UniProt P10635); assay: recombinant CYP inhibition, fluorescence
Chain of CYP2D6 (P10635 whole entry): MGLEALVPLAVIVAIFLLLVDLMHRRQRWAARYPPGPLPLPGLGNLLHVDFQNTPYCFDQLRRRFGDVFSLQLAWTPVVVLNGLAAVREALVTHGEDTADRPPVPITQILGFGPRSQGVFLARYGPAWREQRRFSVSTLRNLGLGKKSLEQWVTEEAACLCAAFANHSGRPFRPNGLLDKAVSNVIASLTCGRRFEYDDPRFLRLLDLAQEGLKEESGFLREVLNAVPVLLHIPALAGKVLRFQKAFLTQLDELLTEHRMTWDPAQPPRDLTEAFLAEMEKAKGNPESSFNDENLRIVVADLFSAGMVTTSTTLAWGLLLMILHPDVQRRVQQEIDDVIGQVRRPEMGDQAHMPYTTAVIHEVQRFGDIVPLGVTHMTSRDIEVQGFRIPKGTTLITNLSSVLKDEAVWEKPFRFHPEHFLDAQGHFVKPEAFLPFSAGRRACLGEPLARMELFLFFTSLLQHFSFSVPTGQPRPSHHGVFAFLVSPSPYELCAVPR

Chain of CYP3A4 (P08684 2-503): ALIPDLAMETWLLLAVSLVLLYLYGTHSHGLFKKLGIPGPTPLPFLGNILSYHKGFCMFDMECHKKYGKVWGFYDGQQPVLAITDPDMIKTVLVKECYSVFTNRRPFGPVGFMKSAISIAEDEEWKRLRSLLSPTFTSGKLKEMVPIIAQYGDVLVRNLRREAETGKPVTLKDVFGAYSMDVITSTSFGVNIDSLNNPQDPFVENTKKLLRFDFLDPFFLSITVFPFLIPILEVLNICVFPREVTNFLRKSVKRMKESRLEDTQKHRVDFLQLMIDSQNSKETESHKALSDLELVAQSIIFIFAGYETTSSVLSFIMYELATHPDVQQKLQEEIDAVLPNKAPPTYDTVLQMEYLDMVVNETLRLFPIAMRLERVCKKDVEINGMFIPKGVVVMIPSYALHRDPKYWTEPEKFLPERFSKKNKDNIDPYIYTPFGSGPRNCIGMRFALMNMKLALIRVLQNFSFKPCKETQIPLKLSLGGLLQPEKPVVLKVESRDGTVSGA
Chain of CYP2C19 (P33261 whole entry): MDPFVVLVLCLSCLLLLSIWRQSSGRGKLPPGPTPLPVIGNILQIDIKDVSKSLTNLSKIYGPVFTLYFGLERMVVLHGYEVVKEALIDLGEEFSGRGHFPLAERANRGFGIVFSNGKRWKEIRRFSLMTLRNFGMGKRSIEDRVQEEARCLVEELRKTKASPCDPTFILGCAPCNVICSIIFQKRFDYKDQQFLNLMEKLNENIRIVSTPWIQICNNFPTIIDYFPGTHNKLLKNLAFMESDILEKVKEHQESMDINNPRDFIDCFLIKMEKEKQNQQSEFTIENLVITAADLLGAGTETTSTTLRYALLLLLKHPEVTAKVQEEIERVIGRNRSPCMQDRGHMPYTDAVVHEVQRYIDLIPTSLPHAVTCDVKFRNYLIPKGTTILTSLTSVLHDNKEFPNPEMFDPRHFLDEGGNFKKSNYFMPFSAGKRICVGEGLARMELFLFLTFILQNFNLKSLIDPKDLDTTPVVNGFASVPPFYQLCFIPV
Chain of CYP2C9 (P11712 whole entry): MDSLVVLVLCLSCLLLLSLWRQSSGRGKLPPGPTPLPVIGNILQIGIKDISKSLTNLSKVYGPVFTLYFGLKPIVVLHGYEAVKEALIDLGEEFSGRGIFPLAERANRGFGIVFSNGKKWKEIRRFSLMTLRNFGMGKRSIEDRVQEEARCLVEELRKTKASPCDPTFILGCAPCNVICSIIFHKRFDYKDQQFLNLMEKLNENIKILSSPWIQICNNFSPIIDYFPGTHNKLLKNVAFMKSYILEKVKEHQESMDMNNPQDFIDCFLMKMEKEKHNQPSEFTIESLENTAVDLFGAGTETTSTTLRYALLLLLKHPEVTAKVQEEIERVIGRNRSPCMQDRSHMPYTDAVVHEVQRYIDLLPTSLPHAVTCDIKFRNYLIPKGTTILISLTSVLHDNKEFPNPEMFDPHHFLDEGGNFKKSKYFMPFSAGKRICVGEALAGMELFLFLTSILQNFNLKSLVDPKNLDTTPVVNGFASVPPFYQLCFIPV
Chain of human topoisomerase IIα (P11388 whole entry): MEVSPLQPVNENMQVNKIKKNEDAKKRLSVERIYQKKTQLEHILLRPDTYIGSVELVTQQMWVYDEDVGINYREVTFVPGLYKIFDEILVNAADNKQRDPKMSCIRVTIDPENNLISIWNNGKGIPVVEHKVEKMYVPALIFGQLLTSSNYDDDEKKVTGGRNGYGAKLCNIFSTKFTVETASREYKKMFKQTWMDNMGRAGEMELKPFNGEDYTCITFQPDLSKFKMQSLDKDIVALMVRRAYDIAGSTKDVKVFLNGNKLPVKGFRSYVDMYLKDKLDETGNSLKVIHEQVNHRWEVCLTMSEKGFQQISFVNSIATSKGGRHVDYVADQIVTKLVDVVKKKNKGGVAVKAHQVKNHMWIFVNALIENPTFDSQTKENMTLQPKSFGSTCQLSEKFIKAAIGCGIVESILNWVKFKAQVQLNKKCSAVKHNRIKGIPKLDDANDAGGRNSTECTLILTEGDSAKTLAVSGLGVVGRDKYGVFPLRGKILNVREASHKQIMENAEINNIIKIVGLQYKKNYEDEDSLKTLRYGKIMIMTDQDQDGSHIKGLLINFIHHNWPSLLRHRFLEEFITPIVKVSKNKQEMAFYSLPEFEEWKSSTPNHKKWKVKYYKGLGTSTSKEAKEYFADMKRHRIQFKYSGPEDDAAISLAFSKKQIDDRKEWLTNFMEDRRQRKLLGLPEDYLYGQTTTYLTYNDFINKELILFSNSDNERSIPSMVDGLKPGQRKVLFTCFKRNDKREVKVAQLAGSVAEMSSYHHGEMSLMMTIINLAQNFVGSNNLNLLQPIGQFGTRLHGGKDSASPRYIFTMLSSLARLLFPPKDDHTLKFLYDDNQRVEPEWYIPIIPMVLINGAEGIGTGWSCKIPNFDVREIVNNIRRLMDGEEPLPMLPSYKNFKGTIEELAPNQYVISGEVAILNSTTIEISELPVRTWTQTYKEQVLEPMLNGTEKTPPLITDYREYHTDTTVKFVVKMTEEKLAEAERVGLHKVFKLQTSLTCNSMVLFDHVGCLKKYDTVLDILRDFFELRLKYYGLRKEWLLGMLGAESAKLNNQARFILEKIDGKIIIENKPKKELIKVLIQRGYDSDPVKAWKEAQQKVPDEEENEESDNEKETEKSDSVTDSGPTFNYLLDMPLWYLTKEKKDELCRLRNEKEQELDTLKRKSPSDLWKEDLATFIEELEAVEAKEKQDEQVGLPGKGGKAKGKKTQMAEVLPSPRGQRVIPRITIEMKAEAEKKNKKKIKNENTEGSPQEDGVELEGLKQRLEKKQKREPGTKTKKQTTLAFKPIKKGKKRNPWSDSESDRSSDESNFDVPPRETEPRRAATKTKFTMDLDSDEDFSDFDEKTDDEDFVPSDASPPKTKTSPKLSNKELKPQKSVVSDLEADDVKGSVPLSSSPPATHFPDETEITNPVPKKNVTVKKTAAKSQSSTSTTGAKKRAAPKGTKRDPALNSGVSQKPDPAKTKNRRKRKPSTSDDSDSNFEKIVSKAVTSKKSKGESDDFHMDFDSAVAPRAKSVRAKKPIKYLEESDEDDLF

IC50 (CYP2C9) | IC50 (CYP2C19) | IC50 (human topoisomerase IIα) | IC50 (CYP3A4) | IC50 (CYP1A2) | IC50 (CYP2D6) | Compound
> 10 µM | > 10 µM | > 959 µM | > 10 µM | > 10 µM | > 10 µM | CCNC(=O)Nc1nc2c(F)c(-c3cnc(N4CCC(C(=O)O)CC4)nc3)cc(-c3ccccn3)c2s1 [RBx 10080758]
> 10 µM | > 10 µM | > 993 µM | > 10 µM | > 10 µM | > 10 µM | CCNC(=O)Nc1nc2c(F)c(-c3ccc(COP(=O)(O)O)nc3)cc(-c3ccccn3)c2s1 [RBx 10115912]

— publication doi:10.1101/2022.09.08.507076v2 (biorxiv, 2022)
